# Laboratory results: patent US20090170897A1, “Method of Treating Neuropathic Pain” (Pfizer, Inc., priority 2004, published 2009)
# Key:
# CRTH2 receptor = target: T1, CRTH2 receptor (Homo sapiens, UniProt Q9Y5Y4); experiment: competition binding of 3H-PGD2 at CRTH2 and DP receptors (selectivity); conditions: competition with 3H-PGD2 binding, IC50 at both receptors
# T1 construct: Flag peptide (behind a 'prolac' signal peptide) (N); expressed in transfected cells
# T1 sequence (Q9Y5Y4 1-395): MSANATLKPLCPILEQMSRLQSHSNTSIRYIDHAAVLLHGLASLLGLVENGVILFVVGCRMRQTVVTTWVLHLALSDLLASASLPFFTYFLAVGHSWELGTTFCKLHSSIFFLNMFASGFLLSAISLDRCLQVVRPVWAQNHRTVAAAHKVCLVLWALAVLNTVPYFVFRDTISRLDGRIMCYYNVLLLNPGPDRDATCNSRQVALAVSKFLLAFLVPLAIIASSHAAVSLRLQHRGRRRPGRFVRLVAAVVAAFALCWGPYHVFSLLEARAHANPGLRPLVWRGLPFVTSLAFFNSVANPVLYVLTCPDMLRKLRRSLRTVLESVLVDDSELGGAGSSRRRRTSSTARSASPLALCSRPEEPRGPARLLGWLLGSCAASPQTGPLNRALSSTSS
# Description: A CRTH2 receptor ligand or antagonist, can be tested for selectivity for the CRTH2 receptor in comparison with DP. In the assay, the capacity of each test compound to compete with binding of ^3H-PGD2 is measured at both the CRTH2 and DP receptors, and an IC50 value (in μM) is determined. Controls can be set up using cold PGD2 to compete with ^3H-PGD2. Any of the above mentioned binding assay procedures can be used. Selectivity of CRTH2 receptor antagonists should be at least 10 fold compared to other GPCRs especially the D type of prostanoid receptor or DP receptor (N-cyclopropyl-N-[2-methyl-1-(pyridine-3-carbonyl)-1,2,3,4-tetrahydro-quinolin-4-yl]-acetamide is >50 fold selective), preferably it should be at least 100 fold selective and even more preferably at least 1000 fold selective, alternatively the antagonist should be selective for CRTH2 receptor over any of the receptors C3a, C5a, FMLP, LTB4, GPCR0269, GPCR0232 or GPCR0288.
# [1] = system: Streptozocin (STZ)-induced diabetes neuropathy in the rat; experiment: STZ-induced static allodynia (von Frey hairs, PWT); format: in vivo
# Description: (§1) Male Sprague Dawley rats weighing 150-400 g obtained from Charles River (Manston, Kent, UK.) were housed in groups of 3. All animals were kept under a 12 h light/dark cycle (lights on at 07 h 00 min) with food and water ad libitum. All experiments were carried out by an observer blind to the treatments and in accordance with the Home Office Animals (Scientific Procedures) Act 1986.
# (§2) Diabetes was induced by a single intraperitoneal injection of streptozotocin (50 mg/kg) freshly dissolved in 0.9% sterile saline. Streptozotocin injection induces a reproducible mechanical allodynia within 3 weeks, lasting for at least 7 weeks (Chen and Pan, (Chen S R and Pan H L. Hypersensitivity of Spinothalamic Tract Neurons Associated With Diabetic Neuropathic Pain in Rats. J Neurophysiol 87: 2726-2733, 2002).
# Animals were habituated to wire bottom test cages prior to the assessment of allodynia. Static allodynia was evaluated by application of von Frey hairs (Stoelting, Wood Dale, Ill., USA.) in ascending order of force (0.6, 1, 1.4, 2, 4, 6, 8, 10, 15 and 26 grams) to the plantar surface of hind paws. Each von Frey hair was applied to the paw for a maximum of 6 sec, or until a withdrawal response occurred. Once a withdrawal response to a von Frey hair was established, the paw was re-tested, starting with the filament below the one that produced a withdrawal, and subsequently with the remaining filaments in descending force sequence until no withdrawal occurred. The highest force of 26 g lifted the paw as well as eliciting a response, thus represented the cut off point. Each animal had both hind paws tested in this manner. The lowest amount of force required to elicit a response was recorded as paw withdrawal threshold (PWT) in grams. Static allodynia was defined as present if animals responded to a stimulus of, or less than, 4 g, which is innocuous in naive rats (Field M J, Bramwell S, Hughes J, Singh L. Detection of static and dynamic components of mechanical allodynia in rat models of neuropathic pain: are they signalled by distinct primary sensory neurones? Pain, 1999; 83:303-11).
# (§3) All the experiments were conducted blind. Static allodynia was expressed as median [LQ; UQ] and analysed by Mann Whitney U test. Dynamic allodynia and thermal hyperalgesia were expressed as arithmetic mean±SEM and analysed by ANOVA.
# [2] = system: Streptozocin (STZ)-induced diabetes neuropathy in the rat; experiment: STZ-induced dynamic allodynia (cotton bud, PWL); format: in vivo
# Description: as §1, §2
# Dynamic allodynia was assessed by lightly stroking the plantar surface of the hind paw with a cotton bud. To avoid recording general motor activity, care was taken to perform this procedure in fully habituated rats that were not active. At least two measurements were taken at each time point, the mean of which represented the paw withdrawal latency (PWL). […] A pain withdrawal response was often accompanied with repeated flinching or licking of the paw. Dynamic allodynia was considered to be present if animals responded to the cotton stimulus within 8 sec of commencing stroking (Field et al, 1999).
# as §3
# [3] = 25 mg/kg PO, post compound dose
# [4] = compound 25 mg/kg PO, gabapentin 100 mg/kg PO (positive control)
compound,measurement,setting,value
"CC(=O)N(C1CC1)C1CC(C)N(C(=O)c2cccnc2)c2ccccc21 (stereo not shown) [N-cyclopropyl-N-[2-methyl-1-(pyridine-3-carbonyl)-1,2,3,4-tetrahydro-quinolin-4-yl]-acetamide]",selectivity for CRTH2 receptor compared to DP receptor,CRTH2 receptor,> 50 fold
same,"duration of biologically relevant effect, STZ static allodynia",[1]; 25 mg/kg PO,up to 2 hr
same,"time of peak effect, STZ static allodynia",[1]; [3],1 h
same,effect on maintenance of STZ-induced static allodynia,[1]; [4],reversed
same,"duration of biologically relevant effect, STZ dynamic allodynia",[2]; 25 mg/kg PO,up to 2 hr
same,"time of peak effect, STZ dynamic allodynia",[2]; [3],1 h
same,effect on maintenance of STZ-induced dynamic allodynia,[2]; [4],reversed
